Measured values taken from US4112228A, “7-(D-α-Hydroxy-2-arylacetamido)-3-(2-carboxyalkyl-2,3-dihydro-s-tri azolo-[4,3-b]pyridazin-3-on-6-ylthiomethyl)-3-cephem-4-carboxylic acids and derivatives” (priority 1977, dated 1978).
≈ marks a conversion by molar mass, not a printed value. Like-named read-outs stand apart in the source and are kept apart here.

Tested on: E. coli
Test: MIC by Steers' agar dilution method
Format: cell-based
Settings: Escherichia coli

For O=C(O)Cn1nc2ccc(SCC3=C(C(=O)O)N4C(=O)C(NC(=O)[C@H](O)c5ccccc5)[C@H]4SC3)nn2c1=O (stereo partly drawn) [BB-S488, 7-(D-Mandelamido)-3-(2-carboxymethyl-2,3-dihydro-s-triazolo[4,3-b]pyridazin-3-on-6-ylthiomethyl)-3-cephem-4-carboxylic Acid], the MIC (A9660, MHA, Table 1, read-out: MIC) was 0.05 µg/mL (≈ 0.0873 µM), the MIC (A15147, MHA, Table 1, read-out: MIC) was 3.1 µg/mL (≈ 5.41 µM) and the MIC (A15810, MHA, Table 1, read-out: MIC) was 0.1 µg/mL (≈ 0.175 µM). It also gave an MIC (ATCC8739, ATCC 8739, MHA, Example 10) of 6.3 µg/mL (≈ 11 µM), an MIC (ATCC8739, ATCC 8739, MHA, Table 1, read-out: MIC) of 0.1 µg/mL (≈ 0.175 µM) and an MIC (ATCC8739, Ec-15 ATCC 8739, HIA, Table 4, read-out: MIC) of 0.2 µg/mL (≈ 0.349 µM). The MIC (ATCC8739, Ec-15 ATCC 8739, MHA, Table 3, read-out: MIC) was 0.2 µg/mL (≈ 0.349 µM), the MIC (ATCC8739, Ec-15 ATCC 8739, MHA, Table 4, read-out: MIC) was 0.2 µg/mL (≈ 0.349 µM) and the MIC (ATCC8739, Ec-15 ATCC 8739, NA, Table 4, read-out: MIC) was 0.1 µg/mL (≈ 0.175 µM). It also gave an MIC (BX-1373, MHA, Example 10, read-out: MIC) of 3.1 µg/mL (≈ 5.41 µM), an MIC (BX-1373, MHA, Table 1, read-out: MIC) of 0.2 µg/mL (≈ 0.349 µM) and an MIC (Ec-1 NIHJ, HIA, Table 4, read-out: MIC) of 0.05 µg/mL (≈ 0.0873 µM). It also gave an MIC (Ec-1 NIHJ, MHA, Table 3, read-out: MIC) of 0.2 µg/mL (≈ 0.349 µM), an MIC (Ec-1 NIHJ, MHA, Table 4, read-out: MIC) of 0.05 µg/mL (≈ 0.0873 µM) and an MIC (Ec-1 NIHJ, NA, Table 4, read-out: MIC) of 0.1 µg/mL (≈ 0.175 µM). For the same compound, the MIC (Ec-3 Juhl A15119, HIA, Table 4, read-out: MIC) was 0.4 µg/mL (≈ 0.699 µM), the MIC (Ec-3 Juhl A15119, MHA, Table 3, read-out: MIC) was 0.2 µg/mL (≈ 0.349 µM) and the MIC (Ec-3 Juhl A15119, MHA, Table 4, read-out: MIC) was 0.2 µg/mL (≈ 0.349 µM). The MIC (Ec-3 Juhl A15119, NA, Table 4, read-out: MIC) was 0.2 µg/mL (≈ 0.349 µM), the MIC (Ec-4 A15169, MHA, Table 3, read-out: MIC) was 12.5 µg/mL (≈ 21.8 µM) and the MIC (Ec-5 K-12, ML-1630 A20363, MHA, Table 3, read-out: MIC) was 0.2 µg/mL (≈ 0.349 µM). For the same compound, the MIC (Ec-11 A20366 (β-lactamase), HIA, Table 4, read-out: MIC) was > 100 µg/mL, the MIC (Ec-11 A20366 (β-lactamase), MHA, Table 4, read-out: MIC) was > 100 µg/mL and the MIC (Ec-11 A20366 (β-lactamase), NA, Table 4, read-out: MIC) was > 100 µg/mL. For the same compound, the MIC (Ec-11 A20366, MHA, Table 3, read-out: MIC) was 50 µg/mL (≈ 87.3 µM), the MIC (Ec-34 A9660, MHA, Table 3, read-out: MIC) was 0.1 µg/mL (≈ 0.175 µM) and the MIC (Ec-35 A9435, MHA, Table 3, read-out: MIC) was 0.4 µg/mL (≈ 0.699 µM). The MIC (Ec-36 A15147 (β-lactamase), HIA, Table 4, read-out: MIC) was 6.3 µg/mL (≈ 11 µM), the MIC (Ec-36 A15147 (β-lactamase), MHA, Table 4, read-out: MIC) was 6.3 µg/mL (≈ 11 µM) and the MIC (Ec-36 A15147 (β-lactamase), NA, Table 4, read-out: MIC) was 6.3 µg/mL (≈ 11 µM). It also gave an MIC (Ec-36 A15147, MHA, Table 3, read-out: MIC) of 3.1 µg/mL (≈ 5.41 µM), an MIC (Ec-40 A20361, MHA, Table 3, read-out: MIC) of 0.2 µg/mL (≈ 0.349 µM) and an MIC (Ec-44 A9535, MHA, Table 3, read-out: MIC) of 0.1 µg/mL (≈ 0.175 µM). For the same compound, the MIC (Ec-45 A15148, MHA, Table 3, read-out: MIC) was 3.1 µg/mL (≈ 5.41 µM), the MIC (Ec-46 A15164 (β-lactamase), HIA, Table 4, read-out: MIC) was > 100 µg/mL and the MIC (Ec-46 A15164 (β-lactamase), MHA, Table 4, read-out: MIC) was 100 µg/mL (≈ 175 µM). For the same compound, the MIC (Ec-46 A15164 (β-lactamase), NA, Table 4, read-out: MIC) was 50 µg/mL (≈ 87.3 µM), the MIC (Ec-46 A15164, MHA, Table 3, read-out: MIC) was 25 µg/mL (≈ 43.7 µM) and the MIC (Ec-47 A15170, MHA, Table 3, read-out: MIC) was 100 µg/mL (≈ 175 µM). For the same compound, the MIC (Ec-49 A20107, MHA, Table 3, read-out: MIC) was 0.4 µg/mL (≈ 0.699 µM), the MIC (Ec-50 A20109, MHA, Table 3, read-out: MIC) was 0.2 µg/mL (≈ 0.349 µM) and the MIC (Ec-51 A20343 (β-lactamase), HIA, Table 4, read-out: MIC) was > 100 µg/mL. For the same compound, the MIC (Ec-51 A20343 (β-lactamase), MHA, Table 4, read-out: MIC) was > 100 µg/mL, the MIC (Ec-51 A20343 (β-lactamase), NA, Table 4, read-out: MIC) was 50 µg/mL (≈ 87.3 µM) and the MIC (Ec-51 A20343, MHA, Table 3, read-out: MIC) was 50 µg/mL (≈ 87.3 µM). It also gave an MIC (Ec-56 A20365, MHA, Table 3, read-out: MIC) of 25 µg/mL (≈ 43.7 µM), an MIC (Ec-58 A9675, MHA, Table 3, read-out: MIC) of 0.4 µg/mL (≈ 0.699 µM) and an MIC (Ec-59 A20766, MHA, Table 3, read-out: MIC) of 0.2 µg/mL (≈ 0.349 µM). It also gave an MIC (Ec-62 A20895, MHA, Table 3, read-out: MIC) of 0.4 µg/mL (≈ 0.699 µM), an MIC (Juhl A15119, MHA, Table 1, read-out: MIC) of 0.2 µg/mL (≈ 0.349 µM) and an MIC (Juhl, MHA, Example 10, read-out: MIC) of 0.2 µg/mL (≈ 0.349 µM). The MIC (NIHJ, MHA, Example 10, read-out: MIC) was 0.2 µg/mL (≈ 0.349 µM), the MIC (NIHJ, MHA, Table 1, read-out: MIC) was 0.025 µg/mL (≈ 0.0437 µM) and the MIC (strain not named (1st of 3), MHA, Example 10, read-out: MIC) was 0.1 µg/mL (≈ 0.175 µM). The MIC (strain not named (2nd of 3), MHA, Example 10, read-out: MIC) was 0.05 µg/mL (≈ 0.0873 µM).
